Article PMC6200399 (ACS chemical biology, 2018)
Where “and” joins values, the source holds several entries; their conditions need not be identical. Identical values can stand only once.

Experiments:
[1] = target: T1, RhlR (Pseudomonas aeruginosa, UniProt P54292); experiment: E. coli RhlR reporter competitive antagonism assay versus 10 μM BHL; format: cell-based, P. aeruginosa; conditions: compounds screened at 1 mM in the presence of 10 μM BHL, relative to activation of 10 μM BHL alone
[2] = target: T1, RhlR; experiment: E. coli RhlR reporter agonism assay; format: cell-based, P. aeruginosa; conditions: for % activation: compounds screened at 10 μM, RhlR activity relative to BHL at 1 mM, E. coli reporter; for EC50: read-out: EC50 (RhlR agonism, E. coli), E. coli RhlR reporter, dose-response; for fold more potent than BHL (RhlR agonism potency): EC50 relative to BHL
[3] = target: LasR (Pseudomonas aeruginosa, UniProt P25084); experiment: E. coli LasR reporter antagonism assay; format: cell-based, P. aeruginosa; conditions: compounds at 1 mM, versus 2 nM OdDHL (Table S3)
Sequence of LasR (P25084 whole entry): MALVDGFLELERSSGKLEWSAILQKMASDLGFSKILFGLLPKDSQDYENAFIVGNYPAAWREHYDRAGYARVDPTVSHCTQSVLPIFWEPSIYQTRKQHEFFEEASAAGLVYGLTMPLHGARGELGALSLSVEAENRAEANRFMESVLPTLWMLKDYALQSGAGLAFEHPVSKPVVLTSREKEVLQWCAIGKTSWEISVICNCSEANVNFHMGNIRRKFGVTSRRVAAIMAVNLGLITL

[4] = target: T1, RhlR; experiment: P. aeruginosa PAO-JP2; format: cell-based; conditions: read-out: EC50 (RhlR agonism, P. aeruginosa); P. aeruginosa PAO-JP2 prhlI-LVAgfp; in the presence of 100 nM OdDHL

T1 sequence (P54292 whole entry): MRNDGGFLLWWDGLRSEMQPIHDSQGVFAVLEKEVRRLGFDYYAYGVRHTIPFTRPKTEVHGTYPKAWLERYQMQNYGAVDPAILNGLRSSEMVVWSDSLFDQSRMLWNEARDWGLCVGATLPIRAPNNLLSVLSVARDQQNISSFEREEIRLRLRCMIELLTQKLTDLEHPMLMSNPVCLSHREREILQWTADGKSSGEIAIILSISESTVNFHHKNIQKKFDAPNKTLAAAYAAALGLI

Molecule: 1-methyl-cyclopropanoyl HL [Compound 20]
- % inhibition [1]: 24%

Molecule: CCCC(=O)N[C@H]1CCOC1=O [Compound 1, N-butanoyl-L-homoserine lactone, reference compound]
- % activation [2]: 51%
- EC50 ([2]; listed as 1 (BHL)): 8.95 µM
- EC50 ([2]; listed as BHL): ~10 µM and ~9 µM
- LasR antagonism (% inhibition) [3]: antagonize

Molecule: CC(C)CC(=O)N[C@H]1CCOC1=O [Compound 7, isovaleryl HL]
- fold more potent than BHL (RhlR agonism potency) [2]: ~10 fold
- % activation [2]: 86%
- EC50 [2]: 1.02 µM
- LasR antagonism (% inhibition) [3]: > 70%
- EC50 [4]: 1.42 µM

Molecule: CCC(C)C(=O)NC1CCOC1=O (stereo not shown) [Compound 8, 2-methylbutanoyl HL]
- % activation [2]: 55%
- EC50 [2]: 7.77 µM

Molecule: O=C(NC1CCOC1=O)C1CCC1 (stereo not shown) [Compound 17, cyclobutanoyl HL]
- fold more potent than BHL (RhlR agonism potency) [2]: ~10 fold
- % activation [2]: 79%
- EC50 [2]: 1.78 µM
- LasR antagonism (% inhibition) [3]: > 70%
- EC50 [4]: 1.41 µM

Molecule: CCCC(=O)N[C@@H]1CCOC1=O [Compound 25, D-BHL]
- RhlR agonism at 1 mM ([2]; compound at 1 mM, E. coli reporter (Table S2)): marginal activity
- % activation [2]: 2%
- % inhibition [1]: 11%

Molecule: CCCC(=O)NC1CCSC1=O (stereo not shown) [Compound 26]
- % activation [2]: 71%
- EC50 [2]: 4.87 µM
- EC50 [4]: 3.82 µM

Molecule: CCCC(=O)N[C@H]1CCNC1=O [Compound 27]
- % activation [2]: 1%

Molecule: CCCC(=O)NC1CCCC1=O (stereo not shown) [Compound 28]
- fold less active than BHL (RhlR agonism potency) ([2]; E. coli reporter EC50 relative to BHL, p < 0.05): under 3 fold
- % activation [2]: 35%
- EC50 [2]: 27.4 µM
- EC50 [4]: 14.3 µM

Molecule: CCCC(=O)NC1CCOC1 (stereo not shown) [Compound 30]
- % activation [2]: 0%

Molecule: Butenyl HL [Compound 14]
- EC50 [2]: 6.93 µM

Molecule: cyclopentyl HL [Compound 3, reference compound]
- % activation [2]: 76%
- EC50 [2]: 1.58 µM
- EC50 [4]: 1.22 µM

Molecule: cyclopropyl HL [Compound 18]
- % activation [2]: 32%

Molecule: pentenyl HL [Compound 2, reference compound]
- % activation [2]: 54%
- EC50 [2]: 7.93 µM

Molecule: propyl HL [Compound 4]
- % activation [2]: 25%
